Read-outs that look alike come from different tables or passages of the source.

Test [1] deals with T-47D. In words: Caspase cascade activation (N-(Ac-DEVD)-N'-ethoxycarbonyl-R110 fluorogenic substrate) in T-47D cells. In kind it is cell-based, Human. To be noted: 24 h incubation with compound; for Caspase activity Ratio (net RFU of test compound to control): 3 h substrate reading; for EC50: Homo sapiens, T47D. As for the experimental part:
(§1) Human breast cancer cell lines T-47D and ZR-75-1 were grown according to media component mixtures designated by American Type Culture Collection +10% FCS (Invitrogen Corporation, Life Technologies division), in a 5% CO2-95% humidity incubator at 37° C. T-47D and ZR-75-1 cells were maintained at a cell density between 30 and 80% confluency at a cell density of 0.1 to 0.6×10^6 cells/ml. Cells were harvested at 600×g and resuspended at 0.65×10^6 cells/ml into appropriate media +10% FCS. An aliquot of 45 μl of cells was added to a well of a 96-well microtiter plate containing 5 μl of a 10% DMSO in RPMI-1640 media solution containing 0.16 to 100 μM of 5-chloro-3-methyl-indole-2-carboxylic acid (4-nitrobenzylidene)-hydrazide (Compound A) or other test compound (0.016 to 10 μM final). An aliquot of 45 μl of cells was added to a well of a 96-well microtiter plate containing 5 μl of a 10% DMSO in RPMI-1640 media solution without test compound as the control sample. The samples were mixed by agitation and then incubated at 37° C. for 24 h in a 5% CO2-95% humidity incubator. After incubation, the samples were removed from the incubator and 50 μl of a solution containing 20 μM of N-(Ac-DEVD)-N′-ethoxycarbonyl-R110 fluorogenic substrate (Cytovia, Inc.; WO99/18856), 20% sucrose (Sigma), 20 mM DTT (Sigma), 200 mM NaCl (Sigma), 40 mM Na PIPES buffer pH 7.2 (Sigma), and 500 μg/ml lysolecithin (Calbiochem) was added. The samples were mixed by agitation and incubated at room temperature. Using a fluorescent plate reader (Model 1420 Wallac Instruments), an initial reading (T=0) was made approximately 1-2 min after addition of the substrate solution, employing excitation at 485 nm and emission at 530 nm, to determine the background fluorescence of the control sample. After the 3 h incubation, the samples were read for fluorescence as above (T=3 h).
(§2) The Relative Fluorescence Unit values (RFU) were used to calculate the sample readings as follows: RFU(T=3h)−Control RFU(T=0)=Net RFU(T=3h)
(§3) The activity of caspase cascade activation was determined by the ratio of the net RFU value for 5-chloro-3-methyl-indole-2-carboxylic acid (4-nitrobenzylidene)-hydrazide (Compound A) or other test compound to that of control samples. The EC50 (nM) was determined by a sigmoidal dose-response calculation (Prism 2.0, GraphPad Software Inc.).

The test system of a further test is ZR-75-1. Nature of the test: Caspase cascade activation (N-(Ac-DEVD)-N'-ethoxycarbonyl-R110 fluorogenic substrate) in ZR-75-1 cells. The format is cell-based, Human. To be noted: ZR-75-1, 24 h incubation with compound; for EC50: Homo sapiens; for Caspase activity Ratio (net RFU of test compound to control): 3 h substrate reading. As for the experimental part:
as §1, §2, §3

Test [2] relates to T-47D. In words: Inhibition of cell proliferation (GI50, CellTiter 96 AQueous One) in T-47D cells. In kind it is cell-based. Particulars: Homo sapiens, T47D, 48 h, read-out: GI50 (dose for 50% inhibition of cell proliferation). On the procedure: T-47D and ZR-75-1 cells were grown and harvested as in Example 1. An aliquot of 90 μl of cells (2.2×10^4 cells/ml) was added to a well of a 96-well microtiter plate containing 10 μl of a 10% DMSO in RPMI-1640 media solution containing 1 nM to 100 μM of 5-chloro-3-methyl-indole-2-carboxylic acid (4-nitrobenzylidene)-hydrazide (Compound A) or 5-chloro-3-phenyl-indole-2-carboxylic acid (4-nitrobenzylidene)-hydrazide (Compound B) (0.1 nM to 10 μM final). An aliquot of 90 μl of cells was added to a well of a 96-well microtiter plate containing 10 μl of a 10% DMSO in RPMI-1640 media solution without compound as the control sample for maximal cell proliferation (AMax). The samples were mixed by agitation and then incubated at 37° C. for 48 h in a 5% CO2-95% humidity incubator. […] Using an absorbance plate reader (Model 1420 Wallac Instruments), an initial reading (T=0) was made approximately 1-2 min after addition of the solution, employing absorbance at 490 nm. This determines the possible background absorbance of the test compounds. No absorbance for 5-chloro-3-methyl-indole-2-carboxylic acid (4-nitrobenzylidene)-hydrazide or 5-chloro-3-phenyl-indole-2-carboxylic acid (4-nitrobenzylidene)-hydrazide was found at 490 nm. After the 2-4 h incubation, the samples were read for absorbance as above (ATest). […]

The next test concerns HeLa cells. Nature of the test: Clonogenic survival of HeLa cells. The format is cell-based. Particulars: for IC50: Homo sapiens. As for the experimental part:
HeLa cells were grown according to media component mixtures designated by American Type Culture Collection +10% FCS (Invitrogen Corporation, Life Technologies division), in a 5% CO2-95% humidity incubator at 37° C. In a well of a 96 well plate, 30,000 cells were seeded and treated with testing compound at the indicated concentrations for 48 hr in a 5% CO2-95% humidity incubator at 37° C. Control wells were treated with the same amount of solvent (DMSO) as the compound samples. After the indicated treatment time, the supernatant was removed to a sterile culture tube and the wells washed with phosphate buffered saline, and the adherent cells trypsinized for 5 min. The trypsinzed cells were added to the culture supernatant, cells were collected (1,200 rpm, 10 min), washed with phosphate buffered saline, and resupended in fresh media. The cells were counted for trypan blue negative cells, and the cells diluted with fresh media to 1,000 cells/ml. To a well of a 24-well plate, 0.1 ml of the cell suspension was added along with 1 ml of fresh media (cell suspensions were passed through a 22G needle several times just before plating to form single cell suspensions). Plates are incubated in a 5% CO2-95% humidity incubator at 37° C. for 5-7 days. Colonies are counted when the sizes reached greater than 50 cells per colony. Cells are washed with phosphate buffered saline, fixed with 100% methanol for 15 min, and then stained with 0.5% gentian violet for 15 min. Colonies are rinsed with water and the colonies counted and the fraction surviving expressed as the percentage of the number of control colonies.

For the compound `O=C(NN=Cc1ccc([N+](=O)[O-])cc1)c1[nH]c2ccc(Cl)cc2c1-c1ccccc1` [Compound B, 5-chloro-3-phenyl-indole-2-carboxylic acid (4-nitrobenzylidene)-hydrazide], the figures for the “Caspase activity Ratio (net RFU of test compound to control)” value (“Caspase activity Ratio” for short) in the test with T-47D [1] and with ZR-75-1 were 3 and 2.9, respectively. Also, the values for the EC50 in the test on T-47D [1] and with ZR-75-1 were 501 nM and 276 nM, respectively. Besides, the GI50 in the test on T-47D [2] was 100 nM. Besides, the “Increase in potency in clonogenic survival assay versus Compound A” value with HeLa cells (48 hr treatment) was found to be 10 fold. The IC50 with HeLa cells (48 hr treatment, read-out: IC50 of colony forming ability) was around 300 nM; with HeLa cells (48 h treatment, FIG. 4 legend, read-out: IC50 of colony formation), around 300 nM.
Take `Cc1ccc(C=NNC(=O)c2[nH]c3ccc(Cl)cc3c2C)cc1` [Example 1, 5-Chloro-3-methyl-indole-2-carboxylic Acid (4-Methylbenzylidene)-hydrazide]: in the test with T-47D [1], the “Caspase activity Ratio” value is on record as 3.7 and the EC50 was found to be 253 nM. Also, in the test on ZR-75-1, the EC50 stood at 187 nM and the “Caspase activity Ratio” value was determined as 2.6.
Take `Cc1c(C(=O)NN=Cc2ccccc2)[nH]c2ccc(Cl)cc12` [Example 2, 5-Chloro-3-methyl-indole-2-carboxylic Acid (Benzylidene)-hydrazide]: in the test with T-47D [1], the “Caspase activity Ratio” value is on record as 5.1 and the EC50 was 4280 nM. Further, in the test with ZR-75-1, the EC50 came to 1490 nM and the “Caspase activity Ratio” value was determined as 4.1.
For `Cc1c(C(=O)NN=Cc2ccc(N(C)C)cc2)[nH]c2ccc(Cl)cc12` [Example 3, 5-Chloro-3-methyl-indole-2-carboxylic Acid (4-Dimethylaminobenzylidene)-hydrazide], in the test on T-47D [1], the “Caspase activity Ratio” value came out at 6.0 and the EC50 stood at 939 nM. Besides, in the test with ZR-75-1, the EC50 came out at 449 nM and the “Caspase activity Ratio” value is reported as 7.2.
For the compound `Cc1ccc(C=NNC(=O)c2[nH]c3ccc(C)cc3c2-c2ccccc2)cc1` [Example 13, 5-Methyl-3-phenyl-indole-2-carboxylic Acid (4-Methylbenzylidene)-hydrazide], the “Caspase activity Ratio” value stood at 3.1 with T-47D [1] and 7.6 in the test on ZR-75-1. The figures for the EC50 in the test on T-47D [1] and in the test on ZR-75-1 were 300 nM and 100 nM, respectively.
Turning to `Cc1ccc2[nH]c(C(=O)NN=Cc3ccc(N(C)C)cc3)c(-c3ccccc3)c2c1` [Example 14, 5-Methyl-3-phenyl-indole-2-carboxylic Acid (4-Dimethylaminobenzylidene)-hydrazide], in the test with T-47D [1], the “Caspase activity Ratio” value stood at 3.5 and the EC50 was 2400 nM. In addition, in the test with ZR-75-1, the EC50 came out at 830 nM and the “Caspase activity Ratio” value worked out at 4.1.
For `Cc1c(C(=O)NN=Cc2ccc(Cl)cc2)[nH]c2ccc(Cl)cc12` [Example 21, 5-Chloro-3-methyl-indole-2-carboxylic Acid (4-Chlorobenzylidene)-hydrazide], the “Caspase activity Ratio” value in the test on T-47D [1] was found to be 4.2; in the test with ZR-75-1, 3.5. For the same compound, the EC50 with T-47D [1] is 3650 nM; with ZR-75-1, 2770 nM.

The record behind these values is patent US6747052B2, “Substituted indole-2-carboxylic acid benzylidene-hydrazides and analogs as activators of caspases and inducers of apoptosis and the use thereof” (Cytovia, Inc., priority 2000, dated 2004).
